Test results published in patent US20200165257A1, “INHIBITORS OF PHOSPHOINOSITIDE 3-KINASE AND HISTONE DEACETYLASE FOR TREATMENT OF CANCER” (THE UNITED STATES OF AMERICA, AS REPRESENTED BY THE …, priority 2017, published 2020).

Key:
PI3Kδ = PI3Kδ (Homo sapiens, UniProt O00329); assay: PI3Kδ kinase assay (HTRF); format: biochemical; details: symbols ++ / +; read-out: PI3Kδ Inhibition Activity (IC50 class)
Description: The PIP3 product is detected by displacement of biotin-PIP3 from an energy transfer complex consisting of Europium labeled anti-GST monoclonal antibody, a GST-tagged pleckstrin homology (PH) domain, biotinylated PIP3 and Streptavidin-Allophycocyanin (APC). […] The PIP3 product formed by PI 3-Kinase(h) activity displaces biotin-PIP3 from the complex resulting in a loss of energy transfer, and thus, a decrease in signal.
First, the kinase reaction with PIP2 substrate is carried out in the presence of ATP, and the reaction is quenched with stop Solution, and then, finally detect by adding Detection Mixture followed by incubation.
HEPES 50 mM (pH7.0), NaN3 0.02%, BSA 0.01%, Orthovanadate 0.1 mM, 1% DMSO.
Detection buffer: HEPES 10 mM (pH7.0), BSA 0.02%, KF 0.16 M, EDTA 4 mM.
10 μM PIP2 substrate (PI(4,5)P2)
10 μM ATP under standard conditions
1. Prepare substrate in freshly prepared Reaction Buffer.
2. Deliver kinase into the substrate solution and gently mix.
3. Deliver compounds in 100% DMSO into the kinase reaction mixture by Acoustic technology (Echo550; nanoliter range), incubate for 10 min at room temperature.
4. Deliver ATP into the reaction mixture to initiate the reaction.
5. Incubate for 30 min at 30° C.
6. Quench the reaction with Stop Solution.
7. Add Detection Mixture, and incubate for overnight.
The emission ratio is converted into μM PIP3 production based on PIP3 standard curves.
The nonlinear regression to obtain the standard curve and IC50 values are performed using Graphpad Prism software.

[1] = test system: Leukemia Cell Line CCRF-CEM; assay: cells; format: cell-based; details: Homo sapiens, single dose, 10 uM compound concentration, read-out: inhibition of proliferation
Leukemia Cell Line K-562 = format: cell-based; details: Homo sapiens, K562; K-562; single dose, 10 uM compound concentration; read-out: inhibition of proliferation
[2] = test system: Leukemia Cell Line MOLT-4; format: cell-based; details: Homo sapiens; MOLT-4; single dose, 10 uM compound concentration; read-out: inhibition of proliferation
[3] = test system: Leukemia Cell Line RPMI-8226; format: cell-based; details: Homo sapiens; RPMI-8226; single dose, 10 uM compound concentration; read-out: inhibition of proliferation
[4] = test system: Melanoma Cell Line UACC-62; assay: cells; format: cell-based; details: Homo sapiens; UACC-62; single dose, 10 uM compound concentration; read-out: inhibition of proliferation
Ovarian Cell Line IGROV1 = format: cell-based; details: Homo sapiens, IGROV-1; IGROV1; single dose, 10 uM compound concentration; read-out: inhibition of proliferation
[5] = test system: Ovarian Cell Line OVCAR-8; assay: cells; format: cell-based; details: Homo sapiens; OVCAR-8; single dose, 10 uM compound concentration; read-out: inhibition of proliferation
[6] = test system: Ovarian Cell Line NCI/ADR-RES; assay: cells; format: cell-based; details: Homo sapiens, single dose, 10 uM compound concentration, read-out: inhibition of proliferation
[7] = test system: Breast Cancer Cell Line HS 578T; format: cell-based; details: Homo sapiens; HS 578T; single dose, 10 uM compound concentration; read-out: inhibition of proliferation
[8] = test system: Breast Cancer Cell Line BT-549; assay: cells; format: cell-based; details: Homo sapiens; BT-549; single dose, 10 uM compound concentration; read-out: inhibition of proliferation
[9] = test system: Ovarian Cell Line OVCAR-3; assay: cells; details: Homo sapiens, OVCAR-3, read-out: inhibition of proliferation
[10] = test system: Breast Cancer Cell Line MDA-MB-468; assay: cells; details: Homo sapiens, MDA-MB-468, read-out: inhibition of proliferation

Sequence of PI3Kδ (O00329 whole entry): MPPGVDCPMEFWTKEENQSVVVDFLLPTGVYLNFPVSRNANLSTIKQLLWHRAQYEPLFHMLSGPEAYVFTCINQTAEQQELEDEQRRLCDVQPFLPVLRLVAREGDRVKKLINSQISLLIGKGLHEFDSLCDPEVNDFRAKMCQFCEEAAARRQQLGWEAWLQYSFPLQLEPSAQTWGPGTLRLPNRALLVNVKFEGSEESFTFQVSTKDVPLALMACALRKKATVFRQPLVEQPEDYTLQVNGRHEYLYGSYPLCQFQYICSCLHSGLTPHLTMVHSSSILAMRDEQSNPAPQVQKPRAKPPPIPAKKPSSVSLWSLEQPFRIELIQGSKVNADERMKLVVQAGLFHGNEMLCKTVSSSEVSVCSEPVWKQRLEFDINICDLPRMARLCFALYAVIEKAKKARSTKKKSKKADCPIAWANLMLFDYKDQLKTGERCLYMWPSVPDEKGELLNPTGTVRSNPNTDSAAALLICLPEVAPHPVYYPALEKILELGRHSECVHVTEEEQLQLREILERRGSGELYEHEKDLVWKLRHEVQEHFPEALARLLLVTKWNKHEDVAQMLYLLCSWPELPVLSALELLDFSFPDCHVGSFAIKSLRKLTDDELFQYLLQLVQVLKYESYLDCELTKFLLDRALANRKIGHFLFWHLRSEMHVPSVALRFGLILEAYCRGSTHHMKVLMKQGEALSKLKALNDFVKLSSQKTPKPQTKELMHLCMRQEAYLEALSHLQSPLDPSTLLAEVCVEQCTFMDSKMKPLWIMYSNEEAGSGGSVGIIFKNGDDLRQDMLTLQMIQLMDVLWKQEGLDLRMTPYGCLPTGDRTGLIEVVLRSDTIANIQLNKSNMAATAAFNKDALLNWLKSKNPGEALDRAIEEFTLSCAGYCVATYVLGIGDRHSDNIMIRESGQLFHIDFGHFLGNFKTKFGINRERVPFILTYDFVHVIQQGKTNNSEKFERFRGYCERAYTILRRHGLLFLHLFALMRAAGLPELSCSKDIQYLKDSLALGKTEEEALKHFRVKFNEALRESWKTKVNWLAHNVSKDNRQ
Sequence of PI3Kδ (P27986 whole entry partner): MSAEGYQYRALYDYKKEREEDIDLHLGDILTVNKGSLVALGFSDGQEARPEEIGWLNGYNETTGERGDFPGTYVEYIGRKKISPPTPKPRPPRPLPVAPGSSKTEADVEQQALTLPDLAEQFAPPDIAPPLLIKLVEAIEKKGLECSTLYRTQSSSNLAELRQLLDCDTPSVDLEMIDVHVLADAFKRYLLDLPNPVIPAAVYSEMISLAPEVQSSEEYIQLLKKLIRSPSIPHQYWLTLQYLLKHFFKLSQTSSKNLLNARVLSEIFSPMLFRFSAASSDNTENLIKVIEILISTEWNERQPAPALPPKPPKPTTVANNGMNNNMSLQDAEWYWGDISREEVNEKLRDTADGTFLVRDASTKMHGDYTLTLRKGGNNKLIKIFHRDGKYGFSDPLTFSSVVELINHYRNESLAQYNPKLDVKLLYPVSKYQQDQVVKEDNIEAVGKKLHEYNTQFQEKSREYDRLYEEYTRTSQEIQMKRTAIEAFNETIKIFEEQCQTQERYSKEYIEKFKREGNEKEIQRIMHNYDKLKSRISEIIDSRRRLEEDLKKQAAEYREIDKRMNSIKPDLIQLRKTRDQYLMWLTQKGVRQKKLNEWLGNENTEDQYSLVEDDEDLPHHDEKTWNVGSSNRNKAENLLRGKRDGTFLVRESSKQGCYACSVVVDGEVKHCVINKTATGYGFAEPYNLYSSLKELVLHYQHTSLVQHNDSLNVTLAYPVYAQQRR

IC50 (PI3Kδ): < 100 nM
SMILES: CC[C@H](Nc1nc(N)nc(C)c1C#N)c1nc2cccc(CN(C)c3ncc(C(=O)NO)cn3)c2c(=O)n1-c1ccccc1 [LII, (S)-2-(((2-(1-((2-amino-5-cyano-6-methylpyrimidin-4-yl)amino)propyl)-4-oxo-3-phenyl-3,4-dihydroquinazolin-5-yl)methyl)(methyl)amino)-N-hydroxypyrimidine-5-carboxamide]
inhibition at 10 µM [1]: > 50% | inhibition at 10 µM (Leukemia Cell Line K-562): > 50% | inhibition at 10 µM [2]: > 50% | inhibition at 10 µM [3]: > 50% | inhibition at 10 µM [4]: > 50% | inhibition at 10 µM (Ovarian Cell Line IGROV1): > 50% | inhibition at 10 µM [5]: > 50% | inhibition at 10 µM [6]: 25 to 50% | inhibition at 10 µM [7]: > 50% | inhibition at 10 µM [8]: > 50% | inhibition at 10 µM [9]: > 50% | inhibition at 10 µM [10]: > 50%
